Laboratory results as given in PMC4619332, “Targeting type-2 metabotropic glutamate receptors to protect vulnerable hippocampal neurons against ischemic damage” (Molecular Brain, 2015).

Target: T1, mGlu3 receptor (Homo sapiens, UniProt Q14832)
T1 construct: gene GRM3; recombinant receptor stably expressed in HEK293 cells
Test: FLIPR Ca2+ mobilization, antagonist mode at glutamate EC80
Type: cell-based
From the text: FLIPR Ca2+ mobilization, antagonist mode [NT]

T1 sequence (Q14832 23-879): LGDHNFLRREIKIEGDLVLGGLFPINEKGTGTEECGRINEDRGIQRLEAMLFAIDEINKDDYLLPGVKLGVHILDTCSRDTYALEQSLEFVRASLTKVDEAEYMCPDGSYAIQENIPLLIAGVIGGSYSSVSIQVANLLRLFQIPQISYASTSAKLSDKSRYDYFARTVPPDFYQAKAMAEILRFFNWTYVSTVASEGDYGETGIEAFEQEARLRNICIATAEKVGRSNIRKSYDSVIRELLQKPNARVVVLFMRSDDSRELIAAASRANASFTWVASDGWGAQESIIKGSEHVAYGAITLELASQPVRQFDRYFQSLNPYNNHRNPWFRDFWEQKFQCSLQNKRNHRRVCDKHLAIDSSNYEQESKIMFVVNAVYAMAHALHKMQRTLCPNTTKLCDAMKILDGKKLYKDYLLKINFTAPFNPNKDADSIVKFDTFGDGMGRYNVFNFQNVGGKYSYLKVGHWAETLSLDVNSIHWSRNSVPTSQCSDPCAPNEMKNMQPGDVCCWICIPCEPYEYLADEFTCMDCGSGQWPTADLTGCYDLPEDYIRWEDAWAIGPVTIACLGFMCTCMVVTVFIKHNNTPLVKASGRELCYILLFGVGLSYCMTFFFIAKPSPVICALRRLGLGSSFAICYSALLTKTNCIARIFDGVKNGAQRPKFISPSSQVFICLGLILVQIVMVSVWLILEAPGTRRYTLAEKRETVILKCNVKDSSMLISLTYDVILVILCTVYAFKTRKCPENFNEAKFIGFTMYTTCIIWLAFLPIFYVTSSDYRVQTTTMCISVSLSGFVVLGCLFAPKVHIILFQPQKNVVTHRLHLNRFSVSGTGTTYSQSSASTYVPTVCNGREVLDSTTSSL

IC50: 17.4 µM
Substance: ADX92639
